Data: ChEMBL document CHEMBL4507263, “Data for DCP probe BAY-474” (2021)

Tests used:
[1] = target: Ephrin type-A receptor 5 (Homo sapiens) (UniProt P54756); assay: EphA5 (h) Millipore kinase activity assay; conditions: Compound concentration 1.0 uM
[2] = target: Glutamate receptor ionotropic, kainate (Rattus norvegicus) (UniProt P22756+Q01812+P42260+P42264+Q63273); assay: Inhibition of Glutamate, Kainate at 10 µM in the Eurofins-Panlabs radioligand binding assay (Eurofins_assay_232700); conditions: Compound concentration 10.0 uM
[3] = target: T1, cGMP-dependent protein kinase 1 (Homo sapiens) (UniProt Q13976); assay: PKG1beta (h) Millipore kinase activity assay; conditions: Compound concentration 1.0 uM
T1 sequence (whole entry): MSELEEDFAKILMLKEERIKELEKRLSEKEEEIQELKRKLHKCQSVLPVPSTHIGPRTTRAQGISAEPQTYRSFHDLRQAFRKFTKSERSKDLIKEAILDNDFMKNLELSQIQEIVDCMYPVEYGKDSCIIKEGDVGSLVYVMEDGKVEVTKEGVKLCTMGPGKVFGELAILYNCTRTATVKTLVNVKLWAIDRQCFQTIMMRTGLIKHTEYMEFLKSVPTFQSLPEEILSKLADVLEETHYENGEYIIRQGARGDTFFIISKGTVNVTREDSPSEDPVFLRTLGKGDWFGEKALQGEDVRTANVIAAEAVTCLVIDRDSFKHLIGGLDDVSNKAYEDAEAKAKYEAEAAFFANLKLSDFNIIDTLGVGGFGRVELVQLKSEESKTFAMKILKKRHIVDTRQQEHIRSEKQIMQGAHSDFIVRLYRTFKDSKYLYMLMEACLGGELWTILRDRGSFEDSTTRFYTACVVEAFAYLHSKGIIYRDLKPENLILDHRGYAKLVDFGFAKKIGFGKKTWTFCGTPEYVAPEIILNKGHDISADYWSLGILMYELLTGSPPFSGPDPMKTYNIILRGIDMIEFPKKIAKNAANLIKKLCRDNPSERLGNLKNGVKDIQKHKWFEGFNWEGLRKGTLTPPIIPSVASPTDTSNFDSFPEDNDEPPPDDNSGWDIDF

[4] = target: Tyrosine-protein kinase JAK3 (Homo sapiens) (UniProt P52333); assay: JAK3 (h) Millipore kinase activity assay; conditions: Compound concentration 1.0 uM
[5] = target: Hepatocyte growth factor receptor (Homo sapiens, UniProt P08581); assay: Met (h) Millipore kinase activity assay; conditions: Compound concentration 1.0 uM
[6] = target: Tyrosine-protein kinase receptor TYRO3 (Homo sapiens) (UniProt Q06418); assay: Rse (h) Millipore kinase activity assay; conditions: Compound concentration 1.0 uM
[7] = target: L-type calcium channel, dihydropyridine site (Cav1.2 alpha-1C) (Homo sapiens, UniProt Q13936); assay: Inhibition of Calcium Channel L-Type, Dihydropyridine at 10 µM in the Eurofins-Panlabs radioligand binding assay (Eurofins_assay_214600); parameters: ligand concentration 0.1 nM, non-specific ligand with concentration 1 µM Nitrendipine, incubation time 90 min, incubation temperature 25 °C; conditions: Wistar, rat, rat cerebral cortex preparation, probe [3H] Nitrendipine; compound concentration 10 uM; target entry is the homologue from another species
[8] = target: Protein kinase C gamma type (Homo sapiens) (UniProt P05129); assay: PKCgamma(h) Millipore kinase activity assay; conditions: Compound concentration 1.0 uM
[9] = target: Calcium/calmodulin-dependent protein kinase type 1G (Homo sapiens) (UniProt Q96NX5); conditions: Compound concentration 1000.0 nM
[10] = target: Activin receptor type-2B (Homo sapiens) (UniProt Q13705); conditions: Compound concentration 1000.0 nM
[11] = target: Serine/threonine-protein kinase pim-2 (Homo sapiens) (UniProt Q9P1W9); conditions: Compound concentration 1000.0 nM
[12] = target: Cyclin-dependent kinase-like 3 (Homo sapiens) (UniProt Q8IVW4); conditions: Compound concentration 1000.0 nM
[13] = target: Serine/threonine-protein kinase NLK (Homo sapiens) (UniProt Q9UBE8); conditions: Compound concentration 1000.0 nM
[14] = target: Serine/threonine-protein kinase 24 (Homo sapiens) (UniProt Q9Y6E0); conditions: Compound concentration 1000.0 nM
[15] = target: Myosin light chain kinase 2, skeletal/cardiac muscle (Homo sapiens) (UniProt Q9H1R3); conditions: Compound concentration 1000.0 nM
[16] = target: Receptor-interacting serine/threonine-protein kinase 1 (Homo sapiens) (UniProt Q13546); conditions: Compound concentration 1000.0 nM
[17] = target: Receptor-interacting serine/threonine-protein kinase 4 (Homo sapiens) (UniProt P57078); conditions: Compound concentration 1000.0 nM
[18] = target: Epidermal growth factor receptor (Homo sapiens) (UniProt P00533); conditions: Compound concentration 1000.0 nM
[19] = target: Serine/threonine-protein kinase D2 (Homo sapiens) (UniProt Q9BZL6); conditions: Compound concentration 1000.0 nM
[20] = target: Serine/threonine-protein kinase PLK2 (Homo sapiens) (UniProt Q9NYY3); conditions: Compound concentration 1000.0 nM
[21] = target: Epithelial discoidin domain-containing receptor 1 (Homo sapiens) (UniProt Q08345); conditions: Compound concentration 1000.0 nM
[22] = target: BMP-2-inducible protein kinase (Homo sapiens) (UniProt Q9NSY1); conditions: Compound concentration 1000.0 nM
[23] = target: Mast/stem cell growth factor receptor Kit (Homo sapiens) (UniProt P10721); conditions: Compound concentration 1000.0 nM
[24] = target: Serine/threonine-protein kinase haspin (Homo sapiens) (UniProt Q8TF76); conditions: Compound concentration 1000.0 nM
[25] = target: ALK tyrosine kinase receptor (Homo sapiens) (UniProt Q9UM73); conditions: Compound concentration 1000.0 nM
[26] = target: Serine/threonine-protein kinase RIO2 (Homo sapiens) (UniProt Q9BVS4); conditions: Compound concentration 1000.0 nM
[27] = target: Myosin light chain kinase (Homo sapiens) (UniProt Q32MK0); conditions: Compound concentration 1000.0 nM
[28] = target: Tyrosine-protein kinase Fer (Homo sapiens) (UniProt P16591); conditions: Compound concentration 1000.0 nM
[29] = target: Calcium/calmodulin-dependent protein kinase type 1 (Homo sapiens) (UniProt Q14012); conditions: Compound concentration 1000.0 nM
[30] = target: Serine/threonine-protein kinase 10 (Homo sapiens) (UniProt O94804); conditions: Compound concentration 1000.0 nM
[31] = target: Aurora kinase C (Homo sapiens) (UniProt Q9UQB9); conditions: Compound concentration 1000.0 nM
[32] = target: Phosphorylase b kinase gamma catalytic chain, skeletal muscle/heart isoform (Homo sapiens) (UniProt Q16816); conditions: Compound concentration 1000.0 nM
[33] = target: Muscle, skeletal receptor tyrosine-protein kinase (Homo sapiens) (UniProt O15146); conditions: Compound concentration 1000.0 nM
[34] = target: Serine/threonine-protein kinase SBK1 (Homo sapiens) (UniProt Q52WX2); conditions: Compound concentration 1000.0 nM
[35] = target: Tyrosine-protein kinase Yes (Homo sapiens) (UniProt P07947); conditions: Compound concentration 1000.0 nM

Chain of Aurora kinase C (Homo sapiens) (Q9UQB9 whole entry, canonical isoform): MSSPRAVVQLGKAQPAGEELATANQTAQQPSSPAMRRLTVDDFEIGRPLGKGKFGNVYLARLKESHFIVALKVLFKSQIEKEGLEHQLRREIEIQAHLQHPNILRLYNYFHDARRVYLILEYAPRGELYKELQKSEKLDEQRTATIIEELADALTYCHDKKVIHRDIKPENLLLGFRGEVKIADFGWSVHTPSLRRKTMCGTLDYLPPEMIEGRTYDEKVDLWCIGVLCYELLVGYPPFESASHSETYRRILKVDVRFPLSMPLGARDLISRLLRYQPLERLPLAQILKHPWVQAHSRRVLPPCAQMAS
Chain of Myosin light chain kinase (Homo sapiens) (Q32MK0 whole entry): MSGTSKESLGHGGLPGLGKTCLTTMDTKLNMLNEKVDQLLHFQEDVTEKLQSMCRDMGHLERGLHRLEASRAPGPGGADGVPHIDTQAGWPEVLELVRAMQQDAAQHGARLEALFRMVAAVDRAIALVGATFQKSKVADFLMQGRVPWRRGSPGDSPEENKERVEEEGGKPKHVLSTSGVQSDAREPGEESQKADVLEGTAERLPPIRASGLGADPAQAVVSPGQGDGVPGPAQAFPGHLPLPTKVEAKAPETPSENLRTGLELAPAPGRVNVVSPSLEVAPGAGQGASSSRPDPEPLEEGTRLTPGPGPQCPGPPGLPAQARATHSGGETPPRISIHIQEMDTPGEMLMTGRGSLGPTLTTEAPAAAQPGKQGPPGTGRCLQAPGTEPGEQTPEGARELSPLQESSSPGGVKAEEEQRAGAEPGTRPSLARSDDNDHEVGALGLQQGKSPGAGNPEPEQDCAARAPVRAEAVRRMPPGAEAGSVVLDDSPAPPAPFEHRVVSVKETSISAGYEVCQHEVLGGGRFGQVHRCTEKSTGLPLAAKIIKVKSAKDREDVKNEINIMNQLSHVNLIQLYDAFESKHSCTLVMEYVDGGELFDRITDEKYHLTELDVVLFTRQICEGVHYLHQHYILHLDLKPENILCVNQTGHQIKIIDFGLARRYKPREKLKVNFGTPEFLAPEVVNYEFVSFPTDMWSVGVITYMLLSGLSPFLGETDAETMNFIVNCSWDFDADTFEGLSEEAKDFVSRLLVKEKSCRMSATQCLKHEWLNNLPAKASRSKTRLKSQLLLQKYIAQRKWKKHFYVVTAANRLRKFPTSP
Chain of Serine/threonine-protein kinase D2 (Homo sapiens) (Q9BZL6 whole entry): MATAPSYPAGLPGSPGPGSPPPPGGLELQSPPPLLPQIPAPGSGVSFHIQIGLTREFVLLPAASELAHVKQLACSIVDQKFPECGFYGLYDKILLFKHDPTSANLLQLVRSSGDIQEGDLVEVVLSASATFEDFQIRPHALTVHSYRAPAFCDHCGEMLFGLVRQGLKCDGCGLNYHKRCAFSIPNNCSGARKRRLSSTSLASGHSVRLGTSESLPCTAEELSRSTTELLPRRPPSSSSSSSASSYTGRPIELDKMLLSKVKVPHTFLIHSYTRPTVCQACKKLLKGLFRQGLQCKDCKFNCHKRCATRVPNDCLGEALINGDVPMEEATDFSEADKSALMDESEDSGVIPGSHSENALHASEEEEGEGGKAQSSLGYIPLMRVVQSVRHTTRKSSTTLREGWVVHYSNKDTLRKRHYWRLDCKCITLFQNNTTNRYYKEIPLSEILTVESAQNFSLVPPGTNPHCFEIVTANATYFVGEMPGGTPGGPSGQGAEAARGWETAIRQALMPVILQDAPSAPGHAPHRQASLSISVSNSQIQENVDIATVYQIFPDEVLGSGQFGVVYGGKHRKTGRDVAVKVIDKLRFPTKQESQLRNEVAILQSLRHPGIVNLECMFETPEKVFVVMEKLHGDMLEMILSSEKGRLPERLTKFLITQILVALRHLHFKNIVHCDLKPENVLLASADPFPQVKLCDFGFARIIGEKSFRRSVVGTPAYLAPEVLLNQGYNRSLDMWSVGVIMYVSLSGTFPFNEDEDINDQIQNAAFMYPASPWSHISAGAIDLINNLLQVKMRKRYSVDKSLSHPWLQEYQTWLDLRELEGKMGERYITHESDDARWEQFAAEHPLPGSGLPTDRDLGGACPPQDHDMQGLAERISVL
Chain of Receptor-interacting serine/threonine-protein kinase 4 (Homo sapiens) (P57078 whole entry): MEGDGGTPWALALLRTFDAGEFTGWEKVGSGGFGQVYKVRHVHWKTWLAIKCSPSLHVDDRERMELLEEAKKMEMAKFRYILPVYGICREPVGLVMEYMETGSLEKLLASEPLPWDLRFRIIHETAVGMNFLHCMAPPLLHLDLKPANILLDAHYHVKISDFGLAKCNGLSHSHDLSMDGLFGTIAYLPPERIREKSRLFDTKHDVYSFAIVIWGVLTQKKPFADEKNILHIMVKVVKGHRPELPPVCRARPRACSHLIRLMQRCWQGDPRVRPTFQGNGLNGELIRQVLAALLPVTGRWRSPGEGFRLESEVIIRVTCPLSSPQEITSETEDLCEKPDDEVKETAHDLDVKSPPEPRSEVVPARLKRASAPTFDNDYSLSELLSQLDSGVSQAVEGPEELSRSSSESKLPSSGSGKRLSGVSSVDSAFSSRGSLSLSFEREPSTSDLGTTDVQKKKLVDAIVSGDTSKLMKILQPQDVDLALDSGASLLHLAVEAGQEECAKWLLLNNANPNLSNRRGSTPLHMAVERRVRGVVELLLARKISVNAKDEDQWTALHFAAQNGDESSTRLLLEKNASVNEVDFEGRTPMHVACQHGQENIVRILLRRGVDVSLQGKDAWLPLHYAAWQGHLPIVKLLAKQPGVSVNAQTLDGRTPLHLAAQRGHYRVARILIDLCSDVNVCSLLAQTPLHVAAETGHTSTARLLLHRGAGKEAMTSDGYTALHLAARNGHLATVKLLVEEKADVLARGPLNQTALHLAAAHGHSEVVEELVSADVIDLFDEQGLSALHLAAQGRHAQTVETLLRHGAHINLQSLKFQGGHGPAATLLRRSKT
Chain of Epidermal growth factor receptor (Homo sapiens) (P00533 whole entry): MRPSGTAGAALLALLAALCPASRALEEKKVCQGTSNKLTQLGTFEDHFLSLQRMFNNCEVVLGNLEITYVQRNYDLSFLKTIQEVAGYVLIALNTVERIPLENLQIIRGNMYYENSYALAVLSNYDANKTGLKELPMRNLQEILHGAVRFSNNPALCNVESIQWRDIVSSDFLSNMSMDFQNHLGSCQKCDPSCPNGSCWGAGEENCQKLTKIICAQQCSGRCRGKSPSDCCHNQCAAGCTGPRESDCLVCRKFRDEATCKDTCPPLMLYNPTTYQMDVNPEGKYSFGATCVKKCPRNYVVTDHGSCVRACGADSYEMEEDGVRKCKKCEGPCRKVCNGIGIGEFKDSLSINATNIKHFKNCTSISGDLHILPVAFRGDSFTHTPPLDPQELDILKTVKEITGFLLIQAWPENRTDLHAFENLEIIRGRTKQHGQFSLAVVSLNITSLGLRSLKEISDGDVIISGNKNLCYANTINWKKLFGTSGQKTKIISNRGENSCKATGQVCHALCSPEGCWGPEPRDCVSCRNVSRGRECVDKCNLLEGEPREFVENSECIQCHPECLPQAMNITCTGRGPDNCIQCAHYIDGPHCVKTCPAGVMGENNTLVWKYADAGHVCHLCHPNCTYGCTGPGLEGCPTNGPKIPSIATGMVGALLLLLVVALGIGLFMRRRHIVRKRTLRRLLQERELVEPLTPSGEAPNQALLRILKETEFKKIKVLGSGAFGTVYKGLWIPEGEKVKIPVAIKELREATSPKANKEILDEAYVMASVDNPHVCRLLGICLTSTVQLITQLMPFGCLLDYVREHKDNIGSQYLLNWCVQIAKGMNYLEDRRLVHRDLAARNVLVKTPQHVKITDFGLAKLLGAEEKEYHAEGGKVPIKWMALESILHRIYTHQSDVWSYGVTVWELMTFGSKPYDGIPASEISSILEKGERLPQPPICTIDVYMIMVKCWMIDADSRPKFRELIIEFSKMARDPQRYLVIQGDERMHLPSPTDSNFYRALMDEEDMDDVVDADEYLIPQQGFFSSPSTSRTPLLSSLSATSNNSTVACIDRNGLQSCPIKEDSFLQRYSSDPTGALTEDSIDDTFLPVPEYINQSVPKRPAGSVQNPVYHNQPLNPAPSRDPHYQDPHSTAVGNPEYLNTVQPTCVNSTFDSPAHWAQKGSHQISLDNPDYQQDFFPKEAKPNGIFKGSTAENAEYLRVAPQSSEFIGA
Chain of Serine/threonine-protein kinase 10 (Homo sapiens) (O94804 whole entry, looked up): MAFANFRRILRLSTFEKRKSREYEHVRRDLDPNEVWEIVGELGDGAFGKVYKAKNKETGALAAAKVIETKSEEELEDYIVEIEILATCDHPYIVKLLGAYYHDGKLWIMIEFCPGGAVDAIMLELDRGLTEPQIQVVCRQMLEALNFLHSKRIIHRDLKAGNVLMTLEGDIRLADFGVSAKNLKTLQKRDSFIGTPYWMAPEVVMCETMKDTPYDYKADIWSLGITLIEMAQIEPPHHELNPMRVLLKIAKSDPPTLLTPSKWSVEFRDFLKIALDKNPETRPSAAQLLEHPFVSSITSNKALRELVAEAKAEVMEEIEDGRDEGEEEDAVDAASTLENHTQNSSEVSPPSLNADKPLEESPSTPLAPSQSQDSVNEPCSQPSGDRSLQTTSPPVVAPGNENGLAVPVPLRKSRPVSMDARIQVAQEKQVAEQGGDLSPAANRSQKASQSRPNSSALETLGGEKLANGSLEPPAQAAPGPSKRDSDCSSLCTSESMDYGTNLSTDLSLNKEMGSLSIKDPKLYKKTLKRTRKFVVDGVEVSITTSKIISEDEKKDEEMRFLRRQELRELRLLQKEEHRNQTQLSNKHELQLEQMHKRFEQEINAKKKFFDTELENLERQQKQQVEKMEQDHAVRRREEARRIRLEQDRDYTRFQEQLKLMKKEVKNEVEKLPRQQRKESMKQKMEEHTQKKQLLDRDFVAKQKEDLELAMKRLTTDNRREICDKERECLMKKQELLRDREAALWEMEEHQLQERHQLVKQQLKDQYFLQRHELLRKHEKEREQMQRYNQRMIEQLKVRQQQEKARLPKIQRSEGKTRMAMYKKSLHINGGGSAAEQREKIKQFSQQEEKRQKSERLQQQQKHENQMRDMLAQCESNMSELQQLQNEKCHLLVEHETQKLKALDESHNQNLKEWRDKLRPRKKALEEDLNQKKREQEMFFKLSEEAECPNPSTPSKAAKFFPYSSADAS

CC1=C(C#N)C(c2ccc3[nH]nc(C)c3c2)C(C#N)=C(C)N1 [BAY-474]
inhibition [1]: -1% | inhibition [2]: -4% | inhibition [3]: 16% | inhibition [4]: -7% | inhibition [5]: 82% | inhibition [6]: 28% | inhibition at 90 min, 10 µM [7]: 0% (not active) | inhibition [8]: 18%

CC1=C(C#N)[C@@H](c2ccc3[nH]nc(C)c3c2)C(C#N)=C(c2ccc(Cl)cc2)N1 [BAY-827]
residual activity [9]: 100% | residual activity [10]: 100% | residual activity [11]: 100% | residual activity [12]: 100% | residual activity [13]: 78.9% | residual activity [14]: 100% | residual activity [15]: 91.4% | residual activity [16]: 94.6% | residual activity [17]: 71.8% | residual activity [18]: 100% | residual activity [19]: 100% | residual activity [20]: 100% | residual activity [21]: 84.5% | residual activity [22]: 100% | residual activity [23]: 71.2% | residual activity [24]: 100% | residual activity [25]: 84.7% | residual activity [26]: 100% | residual activity [27]: 100% | residual activity [28]: 97.9% | residual activity [29]: 100% | residual activity [30]: 100% | residual activity [31]: 100% | residual activity [32]: 100% | residual activity [33]: 100% | residual activity [34]: 100% | residual activity [35]: 100%
